Data as given in patent US12714709B2, “Pharmaceutical compositions comprising 2-[(4S)-8-fluoro-2-[4-(3-methoxyphenyl)piperazin-1-yl]-3-[2-methoxy-5-(trifluoromethyl)phenyl]-4H-quinazolin-4-yl]acetate and sodium ions” (priority 2020, dated 2026).
Structures can show the parent of a compound that is named as a salt. Where two headings read alike, the source gives them in different places.

Key:
[1] = Solubility/precipitation in water, visual inspection; type: physicochemical; details: for precipitation effects / dissolution over time, visual inspection: in water without sodium hydroxide, 20 and 100 mg/mL, over 1 week
Description: A first set of letermovir samples was prepared by dissolving letermovir free base, letermovir sodium salt amorphous, letermovir sodium salt trihydrate or letermovir sodium salt monohydrate in water to prepare the solutions with the concentration of 20 mg/mL and 100 mg/mL with respect to letermovir free base in order to determine the differences in the pH immediately after dissolution and after 1 week and to check precipitation effects and solubility. […]
(§1) Procedure: The corresponding amount of water was added to each sample with further addition of the respective equivalents of 1 M aqueous NaOH to the samples of second set (Table 4, Table 5 and Table 6). No addition of NaOH was applied to the first set of samples.
(§2) The suspensions were stirred at room temperature and the pH was determined immediately after the preparation and after 1 week. The solubility and precipitation effects were also checked (Table 7, Table 8 and Table 9). […]

[2] = pH of letermovir forms and of letermovir free base with NaOH equivalents in water; type: physicochemical; details: for Initial pH / pH after 1 week: no NaOH added
Description: The pH value of the samples was measured with a calibrated pH meter EUTEGH CAKTON PH/Ion 510 Serial n° 172361 with a Polilyte lab electrode. The sample is stirred and the electrode is introduced. A measurement is performed until the pH value is stable. Between measurements the electrode is thoroughly rinsed with water. The pH measurements were performed with an analysis volume of ~1-2 mL and a defined temperature of 22° C.±3° C. A 3-point calibration of the pH meter was performed on a daily basis, by using buffers with pH 7.00, pH 4.01 and pH 10.01 (Hamilton Duracal buffer).
A first set of letermovir samples was prepared by dissolving letermovir free base, letermovir sodium salt amorphous, letermovir sodium salt trihydrate or letermovir sodium salt monohydrate in water to prepare the solutions with the concentration of 20 mg/mL and 100 mg/mL with respect to letermovir free base in order to determine the differences in the pH immediately after dissolution and after 1 week and to check precipitation effects and solubility.
A second set of samples was prepared by adding different equivalents of sodium hydroxide (0.84, 0.86, 0.88 and 0.9 eq.) to letermovir free base solutions. Blank solutions with the same amounts of water and sodium hydroxide equivalents and without letermovir were also prepared for comparative reasons.
as §1, §2

[3] = 20 mg/ml with respect to free base in water
[4] = 100 mg/ml with respect to free base in water
[5] = 20 mg/ml with respect to free base in water, Monohydrate
[6] = 100 mg/ml with respect to free base in water, Monohydrate
[7] = 20 mg/ml with respect to free base in water, Trihydrate
[8] = 100 mg/ml with respect to free base in water, Trihydrate

COc1cccc(N2CCN(C3=Nc4c(F)cccc4[C@H](CC(=O)O)N3c3cc(C(F)(F)F)ccc3OC)CC2)c1 [Free Base, 2-[(4S)-8-fluoro-2-[4-(3-methoxyphenyl)-piperazin-1-yl]-3-[2-methoxy-5-(trifluoromethyl)phenyl]-4H-quinazolin-4-yl]acetic acid]
Solubility/Precipitation ([1]; 20 mg/ml with respect to free base in water, no NaOH added): Insoluble | Solubility/Precipitation ([1]; 100 mg/ml with respect to free base in water, no NaOH added): Insoluble | precipitation effects / dissolution over time, visual inspection ([1]; listed as letermovir free base): did not dissolve | Initial pH [2, 3]: 6.1 | pH after 1 week [2, 3]: 6.1 | Initial pH [2, 4]: 6.3 | pH after 1 week [2, 4]: 6.2 | pH values of the solutions/suspension in water ([2]; in water without sodium hydroxide, 20 and 100 mg/mL, initial and after 1 week, listed as letermovir free base): around 6

COc1cccc(N2CCN(C3=Nc4c(F)cccc4[C@H](CC(=O)[O-])N3c3cc(C(F)(F)F)ccc3OC)CC2)c1.[Na+] [Sodium Salt Amorphous]
Solubility/Precipitation [1]: Clear solution | precipitation effects / dissolution over time, visual inspection [1]: completely clear without precipitation effects | Initial pH [2, 3]: 9.2 | pH after 1 week [2, 3]: 9.0 | Initial pH [2, 4]: 9.3 | pH after 1 week [2, 4]: 9.1

COc1cccc(N2CCN(C3=Nc4c(F)cccc4[C@H](CC(=O)O)N3c3cc(C(F)(F)F)ccc3OC)CC2)c1 [Sodium Salt Monohydrate]
Solubility/Precipitation ([1]; 20 mg/ml with respect to free base in water, no NaOH added, Monohydrate): Clear solution | Solubility/Precipitation ([1]; 100 mg/ml with respect to free base in water, no NaOH added, Monohydrate): Clear solution | precipitation effects / dissolution over time, visual inspection ([1]; listed as letermovir sodium salt monohydrate, Monohydrate): completely clear without precipitation effects | Initial pH [2, 5]: 9.2 | pH after 1 week [2, 5]: 8.9 | Initial pH [2, 6]: 9.2 | pH after 1 week [2, 6]: 9.0

COc1cccc(N2CCN(C3=Nc4c(F)cccc4[C@H](CC(=O)O)N3c3cc(C(F)(F)F)ccc3OC)CC2)c1 [Sodium Salt Trihydrate]
Solubility/Precipitation ([1]; 20 mg/ml with respect to free base in water, no NaOH added, Trihydrate): Clear solution | Solubility/Precipitation ([1]; 100 mg/ml with respect to free base in water, no NaOH added, Trihydrate): Clear solution | precipitation effects / dissolution over time, visual inspection ([1]; listed as letermovir sodium dalt trihydrate, Trihydrate): completely clear without precipitation effects | Initial pH [2, 7]: 9.5 | pH after 1 week [2, 7]: 9.2 | Initial pH [2, 8]: 9.5 | pH after 1 week [2, 8]: 9.2
